According to patent US9862712B2, “Benzimidazole based EGFR inhibitors” (COUNCIL OF SCIENTIFIC & INDUSTRIAL RESEARCH, priority 2014, dated 2018):
“Also recorded” adds a separate entry of the source.

Key:
[1] = system: A549 Cell line (Lung Cancer Cell line); experiment: MTT cell proliferation assay, A549 Cell line; format: cell-based, human; details: for viability at 0.01 µM / viability at 0.1 µM / viability at 2.5 µM / viability at 5 µM / viability at 10 µM: Homo sapiens, 72 h, MTT; for viability at 0.01 µM: A549, 0.01 μM; for viability at 0.1 µM: A549, 0.1 μM; for viability at 2.5 µM: A549, 2.5 μM; for viability at 5 µM: A549, 5 μM; for viability at 10 µM: A549, 10 μM
Protocol: (§1) 1. Protocol Followed for Anti Cancer Activity and Results, Cell Proliferation Assays: Cell lines used herein were purchased from NCCS (National Center for Cell Sciences) Pune, India. Invitro Activity was performed in NCL (National Chemical Laboratory) Pune. Each cell line was plated in 96-well microtiter plates (10,000 cells per well), and serial dilutions of indicated compounds were added. At the end of the incubation period (72 h at 37° C.), cell viability was determined by a tetrazolium dye, MTT (3-(4,5-dimethylthiazol-2-yl)-2,5-diphenyl tetrazolium bromide) (Promega, USA). The formazan crystals were dissolved in DMSO, and the absorbance at 600 nm was recorded using an ELISA plate reader. IC50 values were calculated using nonlinear regression and defined as the concentration needed for a 50% reduction in absorbance of treated versus untreated control cells.
By using the above procedure, the compounds of the invention were tested on A549 Cell line and the results obtained are presented below in table 4, Refer FIG. 1.

MCF-7 Cell line = experiment: MTT cell proliferation assay, MCF-7 Cell line; format: cell-based; details: for viability at 0.01 µM / viability at 0.1 µM / viability at 2.5 µM / viability at 5 µM / viability at 10 µM: Homo sapiens, MCF7, 72 h, MTT; for viability at 0.01 µM: MCF-7, 0.01 μM; for viability at 0.1 µM: MCF-7, 0.1 μM; for viability at 2.5 µM: MCF-7, 2.5 μM; for viability at 5 µM: MCF-7, 5 μM; for viability at 10 µM: MCF-7, 10 μM
Protocol: as §1
Table 4 indicates anticancer activity against A549 Cell line. The Gefitinib was used as standard and % cell Viable was measured compared to control. The procedure used was MTT assay as mentioned. […] By using the above procedure, the compounds of the invention were tested on MCF-7 Cell line and the results obtained are presented below in table 5, Refer FIG. 2.

HOP-62 Cell line = experiment: MTT cell proliferation assay, HOP-62 Cell line; format: cell-based; details: for viability at 0.01 µM / viability at 0.1 µM / viability at 2.5 µM / viability at 5 µM / viability at 10 µM: Homo sapiens, 72 h, MTT; for viability at 0.01 µM: HOP-62, 0.01 μM; for viability at 0.1 µM: HOP-62, 0.1 μM; for viability at 2.5 µM: HOP-62, 2.5 μM; for viability at 5 µM: HOP-62, 5 μM; for viability at 10 µM: HOP-62, 10 μM
Protocol: as §1
By using the above procedure, the compounds of the invention were tested on HOP-62 Cell line and the results obtained are presented below in table 6, Refer FIG. 3.

MDA-MB-436 Cell line = experiment: MTT cell proliferation assay, MDA-MB-436 Cell line; format: cell-based; details: for viability at 0.01 µM / viability at 0.1 µM / viability at 2.5 µM / viability at 5 µM / viability at 10 µM: Homo sapiens, 72 h, MTT; for viability at 0.01 µM: MDA-MB-436, 0.01 μM; for viability at 0.1 µM: MDA-MB-436, 0.1 μM; for viability at 2.5 µM: MDA-MB-436, 2.5 μM; for viability at 5 µM: MDA-MB-436, 5 μM; for viability at 10 µM: MDA-MB-436, 10 μM
Protocol: as §1
By using the above procedure, the compounds of the invention were tested on MDA-MB-436 Cell line and the results obtained are presented below in table 7, Refer FIG. 4.

[2] = system: U87MG Cell line (Glioblastoma cell line); experiment: MTT cell proliferation assay, U87MG Cell line; format: cell-based; details: for viability at 0.01 µM / viability at 0.1 µM / viability at 2.5 µM / viability at 5 µM / viability at 10 µM: Homo sapiens, U-87 MG, U87MG, 72 h, MTT
Protocol: as §1
By using the above procedure, the compounds of the invention were tested on U87MG Cell line (glioblastoma cell line) and the results obtained are presented below in table 8, Refer FIG. 5.

Log P (Table 3) = format: physicochemical; details: no method given
[3] = compared among 15 molecules and with Gefitinib, listed as M4

SMILES | viability at 0.01 µM [1] | viability at 0.1 µM [1] | viability at 2.5 µM [1] | viability at 5 µM [1] | viability at 10 µM [1] | viability at 0.01 µM (MCF-7 Cell line) | viability at 0.1 µM (MCF-7 Cell line) | viability at 2.5 µM (MCF-7 Cell line) | viability at 5 µM (MCF-7 Cell line) | viability at 10 µM (MCF-7 Cell line) | viability at 0.01 µM (HOP-62 Cell line) | viability at 0.1 µM (HOP-62 Cell line) | viability at 2.5 µM (HOP-62 Cell line) | viability at 5 µM (HOP-62 Cell line) | viability at 10 µM (HOP-62 Cell line) | viability at 0.01 µM (MDA-MB-436 Cell line) | viability at 0.1 µM (MDA-MB-436 Cell line) | viability at 2.5 µM (MDA-MB-436 Cell line) | viability at 5 µM (MDA-MB-436 Cell line) | viability at 10 µM (MDA-MB-436 Cell line) | also measured
Nc1nc(Nc2ccccc2[N+](=O)[O-])sc1-c1nc2ccccc2[nH]1 [Molecule S4-M4, 5-(1H-benzo[d]imidazol-2-yl)-N^2-(2-nitrophenyl)thiazole-2,4-diamine] | 57.1% | 49.1% | 34.7% | 25.9% | 18.4% | 72.7% | 61.2% | 53.8% | 42.9% | 31.9% | 43.1% | 36.1% | 25.7% | 18.9% | 12.4% | 69.7% | 58.2% | 42.8% | 28.9% | 21.9% | anticancer activity against A549 Cell line (in words) ([1]; compared among 15 molecules and with Gefitinib): most active; anticancer activity against MCF-7 Cell line (in words) (MCF-7 Cell line; compared among 15 molecules, listed as M4): most active; also recorded: showing Invitro activity; anticancer activity against HOP-62 Cell line (in words) (HOP-62 Cell line; [3]): most active; also recorded: Invitro activity comparable to standard Gefitinib; anticancer activity against MDA-MB-436 Cell line (in words) (MDA-MB-436 Cell line; [3]): most active; also recorded: Invitro activity comparable to standard Gefitinib; viability at 0.01 µM [2]: 45.7%; viability at 0.1 µM [2]: 33.2%; viability at 2.5 µM [2]: 22.8%; viability at 5 µM [2]: 18.9%; viability at 10 µM [2]: 8.86%; anticancer activity against U87-MG Cell line (in words) ([2]; compared among 15 molecules): most active; logP (Log P (Table 3)): 3.33; melting point: 220 to 222 °C
Nc1nc(Nc2ccc(Br)cc2F)sc1-c1nc2ccccc2[nH]1 [Molecule S4-M7, 5-(1H-benzo[d]imidazol-2-yl)-N^2-(4-bromo-2-fluorophenyl)thiazole-2,4-diamine] | 97.1% | 90.9% | 81.8% | 71.8% | 62.8% | 100% | 101% | 101% | 101% | 101% | 102% | 101% | 100% | 100% | 90.9% | 100% | 99.9% | 101% | 93.8% | 91.8% | viability at 0.01 µM [2]: 98.1%; viability at 0.1 µM [2]: 94.9%; viability at 2.5 µM [2]: 93.8%; viability at 5 µM [2]: 90.8%; viability at 10 µM [2]: 85.8%; logP (Log P (Table 3)): 3.2; melting point: 200 to 202 °C
